Measurements as given in publication PMC6368365, “Didehydro-Cortistatin A Inhibits HIV-1 by Specifically Binding to the Unstructured Basic Region of Tat” (mBio, 2019).

System: recombinant Tat transactivation of HIV-1 transcription in OM10.1 cells
Experiment: Transactivation assay with recombinant Tat in OM10.1 cell model of HIV-1 latency
Format: cell-based
Settings: Tat 1 μg, dCA 250 nM
Excerpt: The production of functional recombinant HIV-1 Tat in Escherichia coli is not trivial as the proper folding of Tat is extremely important for activity, and when expressed by itself, Tat agglomerates mostly because of oxidation of the cysteine residues in the cysteine region. Tat can also adhere to different surfaces and anionic polymers via its charged and hydrophobic residues ([21], [22]). We produced and purified recombinant HIV Tat HXB3 (residues 1 to 89) with a 6×His tag in the C-terminus in E. coli. For this, we have partially optimized the arginine codon usage and changed the rare AGA into codon CGT at arginine positions 7, 53, 56, and 87 of Tat (Fig. 1A). […] After Tat purification using nickel affinity chromatography followed by size exclusion filtration, Tat protein size was analyzed by SDS-PAGE followed by Coomassie blue staining (Fig. 1B). The specificity of the bands was confirmed by Western blotting using anti-Tat serum and anti-His antibody (Fig. 1B). The purity of Tat was further verified by size exclusion chromatography and high-performance liquid chromatography (HPLC) (Fig. 1C and D). […]
FIG 1 Purity and activity of the monomeric His-tagged Tat HXB3 and analysis of its direct binding to dCA. […] Statistical significance was determined using one-way ANOVA with post hoc Tukey’s test. ns, not significant; ***, P < 0.0001; *, P < 0.01. […]

| SMILES | inhibition of recombinant Tat transactivation (HIV mRNA) |
| --- | --- |
| C[C@@](Cc1ccc(O)c(O)c1)(NN)C(=O)O.O [SCM, S-(−)-carbidopamonohydrate, reference compound] | no activity |
| CN(C)C1CC23CCC4(O2)C(=CCC2(C)C(c5ccc6ccncc6c5)=CCC24)C=C3C(O)C1O (centres unmarked) [dCA, didehydro-cortistatin A] | inhibited transcriptional activity of Tat |
